This series relates to 4T1 subcutaneous solid tumor. Kind of series: In vivo fluorescence imaging of 4T1 tumor-bearing mice. Details: species or system BALB/c mice. From the text:
The prospective in vitro results prompted us to further explore in vivo application possibility of QTCy7-Ac, and a solid tumor model of BALB/c mice was established by inoculating 4T1 cells subcutaneously under the armpit (Figure 10a). All the BALB/c mice were purchased from Liaoning Changsheng Biotechnology Co., Ltd., and the animal experiments were approved by the Local Scientific Research Ethics Review Committee of the Animal Ethics Committee of Dalian University of Technology (ID no. // Ethics Approval No. 2021-043). When the tumor volume reached 100 mm^3, fluorescence imaging was performed at different time points after intravenous injection of QTCy7-Ac. […] To test this hypothesis, the mice were executed and dissected 2.5 h after intravenous injection, and the fluorescence imaging of the main organs and tumor was performed.
DMEM medium was replaced with saline to prevent false positive interference. […] Then the confocal fluorescence imaging was carried out and recorded with a 10 × objective lens.
Cytotoxicity was tested by the reduction of methyl thiazolyl tetrazolium to formazan by succinic acid dehydrogenase in the mitochondria of living cells (MTT assay). […] The MTT solution was carefully removed and 100 μL DMSO was added to dissolve formazan, and the absorbance of each well was measured by a multifunctional microplate reader at 570 nm and 630 nm. […]

The source of these data is PMC10451034, “Highly Efficient Photosensitizers with Molecular Vibrational Torsion for Cancer Photodynamic Therapy” (ACS Central Science, 2023).

“Also recorded” adds a separate entry of the source.

As to `CCOC(=O)C1=C/C(=C\C=C2/Sc3ccccc3N2CC)C(=O)C(/C=C/c2sc3ccccc3[n+]2CC)=C1` [QTCy7-Ac], the “time at which tumor region is lit up” value (after intravenous injection, 200 μM 100 μL) is “around 60 min”. Moreover, where the note is “organs and tumor 2.5 h after intravenous injection”, the “route of metabolism / organ distribution by ex vivo fluorescence” value is listed as “metabolized primarily through the kidney; also recorded: non-negligible fluorescence signal stronger than the liver”.
